Like-named read-outs stand apart in the source and are kept apart here.
Key:
GLP-1 secretion = GLP-1 secretion assay (Table 5; cell line not stated); type: cell-based
Experimental: The GLP-1 secretion assay identifies compounds that stimulate secretion of glucagonlikepeptide one (GLP-1) in mouse and human cell lines derived from gastrointestinal tract tissue. GLP-1 secretion is measured using an ELISA designed to detect the appropriate forms of GLP-1 secreted from these cells. If active in the cell-based GLP-1 assay, molecules can be further tested for selectivity in assays that measure activation of G-protein-coupled receptors (GPCRs) known to stimulate GLP-1 secretion. See, for example, “Glucagon-Like Peptide 1-Based Therapies for Type 2 Diabetes: A Focus on Exenatide,” Kathleen Dungan and John B. Buse; Clinical Diabetes 29 (1), (Winter 2011); and “Glucagon-Like Peptide 1 Secretion by the L-Cell,” Gareth E. Kim and Patricia L. Brubaker; Diabetes: 55 (supplement 2), (December, 2006).
The GLP-1 secretion, diabetes phenotypic testing identifies compounds that stimulate secretion of glucagon-like peptide one (GLP-1) in mouse and human cell lines derived from gastrointestinal tract tissue. GLP-1 secretion is measured using an Eli Lilly & Company (Indianapolis, Ind., USA) proprietary ELISA assay that was specifically designed to detect the appropriate forms of GLP-1 secreted from these cells. (Eli Lilly operates a program known Open Innovation Drug Discovery that performs such testing. See https://openinnovation.lilly.com/dd/.) If active in the cell-based GLP-1 assay, molecules are further tested for selectivity in assays that measure activation of GPCRs known to stimulate GLP-1 secretion. See Glucagon-Like Peptide 1-Based Therapies for Type 2 Diabetes: A Focus on Exenatide; Kathleen Dungan and John B. Buse; Clinical Diabetes: 29 (1), (Winter 2011); and Glucagon-Like Peptide 1 Secretion by the L-Cell; Gareth E. Kim and Patricia L. Brubaker; Diabetes: 55 (supplement 2), (December, 2006).

[1] = test system: secreted PCSK9 in HepG2 cells; assay: PCSK9 inhibition assay (AlphaLISA, secreted PCSK9); type: cell-based; conditions: Homo sapiens, Table 5
Source text: PCSK9 expression is actively regulated at transcription levels. Statins are known to stimulate PCSK9 transcription which in turn curbs the efficacy of statins in LDL lowering in humans. […] The PCSK9 SI phenotypic assay is designed to identify compounds that inhibit synthesis of PCSK9 in human hepatoma cell lines (HepG2). See, for example, Horton, J. D., Cohen, J. C., and Hobbs, H. H., “PCSK9: a convertase that coordinates LDL catabolism,” J. Lipid Res. 50 Suppl, S172-177, (2009); Crunkhorn, S. “Trial watch: PCSK9 antibody reduces LDL cholesterol,” Nat Rev Drug Discov 11, 11, (2012); Vogel, R. A., “PCSK9 inhibition: the next statin,” J Am Coll Cardiol 59, 2354-2355, (2012); Li, H., Dong, B., Park, S. W., Lee, H. S., Chen, W., and Liu, J., “Hepatocyte nuclear factor 1alpha plays a critical role in PCSK9 gene transcription and regulation by the natural hypocholesterolemic compound berberine,” J Biol Chem 284, 28885-28895, (2009); and Cao, A., Wu, M., Li, H., and Liu, J., “Janus Kinase activation by cytokine oncostatin M decreases PCSK9 expression in liver cells,” J Lipid Res 52, 518-530, (2011).
Inhibition of secreted PCSK9 was measured in human hepatocellular carcinoma (HepG2) cells using an “AlphaLISA”®-brand assay. Given that this assay is run in an inhibition mode, the viability of cells was also assessed to rule out compounds whose PCSK9 inhibition resulted from deleterious effects on cell health. Freshly cultured HepG2 cells were harvested from poly-d-lysine-coated T225 cell culture flasks and plated in biocoat poly-d-lysine coated 384 black with clear bottom microtiter plates (BD BioCoat #356663; Becton, Dickinson and Company, Franklin Lakes, N.J., USA) at 20,000 cells/well in 60 ul of growth media (MEM+10% heat inactivated FBS+1% NEAA+1% sodium pyruvate+1% GlutaMAX). Cell plates were incubated overnight at 37° C. and 5% CO2 prior to compound treatment.
Compounds were serially diluted 3-fold in 100% DMSO to achieve a starting final assay plate concentration of 50 uM following a 20-fold dilution in assay media (MEM+5% heat inactivated FBS+1% NEAA+1% sodium pyruvate+1% GlutaMAX) and a 10-fold dilution into the cell plates. While the compounds were diluting, the cell plates were washed twice with 75 ul of assay media and refilled with 45 ul of assay media. The cell plates were incubated for 48 hrs at 37° C. and 5% CO2 prior to running the “AlphaLISA”®-brand assay. The “AlphaLISA”® bead mix was assembled in water and left to incubate 1 hr in the dark prior to use (1× “AlphaLISA”® buffer, 5 mg/ml mAb-PCSK9-A4 conjugated acceptor beads, 3.4 uM bioti-mAb-anti-PCSK9-B9, 5 mg/ml streptavidin-coated donor beads). […] In the dark, 5 ul of the bead mix was added to the ProxiPlates, and then the plates were left to incubate at ambient temperature in the dark overnight before being read on an Envision (excitation 680 nm and emission 615 nm). […] The plates were removed from the incubator, sealed with black tape, and read for propidium iodide stained nuclei using an Acumen-brand cell imaging system (TTP Labtech Ltd., Melbourn, Hertfordshire United Kingdom). Percent inhibitions at all concentrations tested were calculated relative to 0.5% DMSO (min effect), and the effect of 50 uM of a fully efficacious PCSK9 inhibitor for the PCSK9 inhibition assay (max effect), or 50 uM Brefeldin A for the viability assay (max effect). IC50 values were calculated using a 4 parameter logistic curve fitting equation.

IL5 = IL5 assay (Table 5); type: cell-based
[2] = test system: IL-17 secretion from human peripheral blood mononuclear cells (PBMCs); assay: IL-17 phenotypic assay; type: cell-based; conditions: PBMC, Table 5, read-out: IL17, IC50
Source text: The IL-17 phenotypic assay seeks to identify inhibitors of IL-17 secretion from human peripheral blood mononuclear cells (PBMCs) following stimulation of memory T cells by IL-23, anti-CD3, and anti-CD28. Compounds of interest will inhibit IL-17. See W. Ouyang, J. K. Kolls, V. Zheng, “The biological functions of T helper 17 cell effector cytokines in inflammation,” Immunity, 28, 454-467 (2008); I. I. Ivanov, L. Zhou, D. R. Littman, “Transcriptional regulation of Th17 cell differentiation,” Semin Immunol, 19, 409-417 (2007); N. Mane I, D. Unutmaz, D. R. Littman, “The differentiation of human T(H)-17 cells requires transforming growth factor-beta and induction of the nuclear receptor RORgammat,” Nat Immunol, 9, 641-649 (2008); and M. Ciofani, A. Madar, C. Galan, M. Sellars, K. Mace, F. Pauli, A. Agarwal, W. Huang, C. N. Parkurst, M. Muratet, K. M. Newberry, S. Meadows, A. Greenfield, V. Vang, P. Jain, F. K. Kirigin, C. Birchmeier, E. F. Wagner, K. M. Murphy, R. M. Myers, R. Bonneau, D. R. Littman, “A validated regulatory network for Th17 cell specification.” Cell, 151, 289-303 (2012).

AhR = AhR (Homo sapiens (Human), UniProt P35869); assay: ethoxyresorufin-O-deethylase (EROD) assay, AhR activation (CYP1A1 induction); type: cell-based; conditions: for increase of signal over DMSO treatment: at 10 nM concentration, data not shown
Experimental: The human Hep G2 cell line from the Small Molecule Screening and Synthesis Facility (UWCCC, Madison, Wis.) and was maintained in DMEM medium supplemented with 10% FBS. Cells were incubated at 37° C. in a humidified atmosphere supplemented with 5% CO2.
Preparation of cells: Cells were cleaved from T75 flasks with 0.05% trypsin. The cells were then collected by spinning at 1 g for 4 min. Excess media containing trypsin was removed from the pellet, which was then re-suspended in growth media. The cells were then counted using a hemocytometer. Cells were plated in sterile 96-well clear bottom black culture plates at a density of 20,000 cells per well in 0.1 mL of media. The cells were then incubated for 24 h at 37° C. in a humidified atmosphere supplemented with 5% CO2.
The ethoxyresorufin-O-deethylase (EROD) assay was performed on cell cultures of human Hep G2 cells. Briefly, 24 h after plating, cells in 96-well plates were treated with AhR agonists and allowed to incubate for 24 h. Each well was then rinsed with 200 uL of PBS buffer twice. To each well was then added 100 uL of 150 nM solution of 7-ethoxyresurufin and allowed to incubate for 2 h. Fluorescence measurements were obtained with a Safire II micro plate reader with excitation at 520 nm with a 25 nm bandwidth and emission at 595 nm with a 20 nm bandwidth.
The bioactivity of malassezin analogs was then investigated. The well-documented ethoxyresorufin-O-deethylase (EROD) assay was used to determine the EC50 values of the compounds towards AhR activation in HepG2 cells. Donato, M. T.; Gomezlechon, M. J.; Castell, J. V. Anal. Biochem. 1993, 213, 29; van Tonder, J. J., University of Pretoria Z. A., Thesis, 2011. This assay measures the induction of cytochrome P450-1A1 (CYP1A1), which is a major outcome of AhR activation. Whyte, J. J.; Jung, R. E.; Schmitt, C. J.; Tillitt, D. E. Crit. Rev. Toxicol. 2000, 30, 347. CYP1A1 selectively converts 7-ethoxyresorufin to the fluorescent product resorufin.

[3] = in human; cited from earlier work
[4] = EROD assay, HepG2 cells, 24 h treatment, read-out: EC50 (AhR Activity of Diindolylmethanes)

AhR, sequence (P35869 11-848): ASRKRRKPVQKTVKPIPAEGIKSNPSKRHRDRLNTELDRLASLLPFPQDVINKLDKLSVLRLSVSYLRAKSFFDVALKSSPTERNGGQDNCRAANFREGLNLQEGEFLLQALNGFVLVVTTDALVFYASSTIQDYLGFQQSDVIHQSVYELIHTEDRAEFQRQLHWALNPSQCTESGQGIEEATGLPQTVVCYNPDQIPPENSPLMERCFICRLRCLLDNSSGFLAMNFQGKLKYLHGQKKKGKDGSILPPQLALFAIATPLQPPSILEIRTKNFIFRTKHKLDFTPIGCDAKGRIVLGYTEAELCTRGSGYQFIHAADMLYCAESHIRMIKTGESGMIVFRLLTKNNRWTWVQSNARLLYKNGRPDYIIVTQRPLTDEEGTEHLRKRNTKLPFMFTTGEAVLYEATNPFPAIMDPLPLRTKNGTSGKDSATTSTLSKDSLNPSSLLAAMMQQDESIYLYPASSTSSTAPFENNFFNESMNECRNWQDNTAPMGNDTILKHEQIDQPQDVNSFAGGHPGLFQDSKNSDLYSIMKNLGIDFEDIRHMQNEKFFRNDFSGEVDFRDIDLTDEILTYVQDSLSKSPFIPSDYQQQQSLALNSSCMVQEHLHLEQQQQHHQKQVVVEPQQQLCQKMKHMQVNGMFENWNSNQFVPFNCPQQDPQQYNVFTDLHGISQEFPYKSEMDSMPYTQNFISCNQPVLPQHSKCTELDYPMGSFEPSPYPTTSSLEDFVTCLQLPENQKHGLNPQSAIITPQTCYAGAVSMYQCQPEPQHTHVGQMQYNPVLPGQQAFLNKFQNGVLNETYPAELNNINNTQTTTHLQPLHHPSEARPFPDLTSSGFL

Row | SMILES | EC50 (GLP-1 secretion) | EC50 (AhR; [4]) | other results
1 | Cc1ccc(S(=O)(=O)n2c(Cc3c[nH]c4cccc(C)c34)c(C)c3ccccc32)cc1 | 2600 nM | – | –
2 | Cc1ccc(S(=O)(=O)n2c(COC(C)C)c(C)c3ccccc32)cc1 | 7300 nM | – | –
3 | Cc1ccc(S(=O)(=O)n2c(Cc3cn(C)c4ccccc34)c(C(C)C)c3ccccc32)cc1 | – | – | IC50 [1]: 1100 nM
4 | Cc1ccc(S(=O)(=O)n2c(Cc3[nH]c4ccccc4c3CC#N)c(C)c3ccccc32)cc1 | – | – | IC50 (IL5): > 30000 nM; IC50 [2]: 3100 nM
5 | COc1ccc(Cc2c(C)c3ccccc3n2S(=O)(=O)c2ccc(C)cc2)c(OC)c1 | 2900 nM | – | IC50 [1]: 1100 nM
6 | c1ccc2[nH]c(Cc3c[nH]c4ccccc34)cc2c1 [6′, 3-((1H-indol-2-yl)methyl)-1H-indole] | – | 215 ± 460 nM | –
7 | O=Cc1c(Cc2c[nH]c3ccccc23)[nH]c2ccccc12 [Compound 6, 2-((1H-indol-3-yl)methyl)-1H-indole-3-carbaldehyde, reference compound] | – | 270 ± 100 nM | –
8 | COc1ccc2[nH]cc(Cc3cc4ccccc4[nH]3)c2c1 [Compound 10c] | – | 94 ± 270 nM | –
9 | Cn1cc(Cc2cc3ccccc3[nH]2)c2ccccc21 [Compound 10d] | – | 86 ± 40 nM | –
10 | O=Cc1c(Cc2c[nH]c3ccc(Cl)cc23)[nH]c2ccccc12 [Compound 11a] | – | 93 ± 150 nM | increase of signal over DMSO treatment (AhR): 5 fold
11 | O=Cc1c(Cc2c[nH]c3c(Cl)cccc23)[nH]c2ccccc12 [Compound 11b] | – | 320 ± 100 nM | –
12 | COc1ccc2[nH]cc(Cc3[nH]c4ccccc4c3C=O)c2c1 [Compound 11c] | – | 230 ± 100 nM | –
13 | Cn1cc(Cc2[nH]c3ccccc3c2C=O)c2ccccc21 [Compound 11d] | – | 55 ± 30 nM | EC50 value relative to that of malassezin (AhR; EROD assay, HepG2 cells): about five; increase of signal over DMSO treatment (AhR): 6 fold
14 | Clc1ccc2[nH]cc(Cc3cc4ccccc4[nH]3)c2c1 [Compound 2351377819] | 14800 nM | – | IC50 [1]: 10000 nM
15 | Clc1cccc2c(Cc3cc4ccccc4[nH]3)c[nH]c12 [Compound 2351377820] | 7200 nM | – | IC50 [1]: 2800 nM
16 | Brc1ccc2[nH]cc(Cc3cc4ccccc4[nH]3)c2c1 [Compound 2351377823] | 6800 nM | – | –
17 | Cn1cc(Cc2cc3ccccc3[nH]2)c2ccccc21 [Compound 2351377824] | – | – | IC50 [1]: 17900 nM; EC50 (AhR; Table 5, read-out: AhR, EC50): 90 nM
18 | Clc1cc2c(cc1Cl)Oc1cc(Cl)c(Cl)cc1O2 [dioxin, 2,3,7,8-tetrachlorodibenzo-p-dioxin] | – | – | half-life (metabolic stability) [3]: 7-10 years

Reference: patent US9969686B2, “Synthesis of diindolylmethanes and indolo[3,2-b]carbazoles, compounds formed thereby, and pharmaceutical compositions containing them” (Wisconsin Alumni Research Foundation, priority 2014, dated 2018)
